{"source": "patent US10881060B2", "about": "“Endophytes and related methods” (Agriculture Victoria Services PTY LTD, priority 2010, dated 2021)", "system": "N. lolii (strain ST) mycelia", "assay": "Colchicine kill curve of endophyte mycelia", "type": "cell-based", "conditions": "grown 21 days", "method": "Experiments were conducted to determine the range of colchicine concentrations in which the mycelia of the fungal endophyte N. lolii (strain ST) would grow successfully. Mycelia were grown in colchicine concentrations ranging from 0% to 1% for 21 days and monitored for growth (FIG. 15). At greater than or equal to 0.2% colchicine mycelium growth halted whereas at 0.1% or less colchicine mycelium growth was prolific.", "data": [{"smiles": "COc1cc2c(c(OC)c1OC)-c1ccc(OC)c(=O)cc1[C@@H](NC(C)=O)CC2", "note": "[colchicine]", "values": [{"measurement": "Colchicine concentration at which mycelium growth halted", "value": "greater than or equal to 0.2%"}, {"measurement": "Colchicine concentration at which mycelium growth was prolific", "value": "≤ 0.1", "unit": "%"}]}]}
